Values after ≈ are worked out from the molar mass of the structure shown.

Type in all cases: functional
For assay [1], the system named is Streptococcus pneumoniae. Put plainly: Antibacterial activity against erythromycin-resistant Streptococcus pneumoniae AB11 expressing erm and mef gene by broth microdilution method. A general note: Dilution methods test growth across graded concentrations, often in twofold steps.
The subject of assay [2] is Streptococcus pneumoniae. Put plainly: Antibacterial activity against erythromycin-resistant Streptococcus pneumoniae B1 expressing erm gene by broth microdilution method.
For assay [3], the system named is Staphylococcus aureus. Put plainly: Antibacterial activity against erythromycin-susceptible Staphylococcus aureus ATCC 25923 by broth microdilution method.
In assay [4] the test system is Streptococcus pneumoniae. Put plainly: Antibacterial activity against erythromycin-resistant Streptococcus pneumoniae A22072 expressing mef gene by broth microdilution method.
The subject of assay [5] is Streptococcus pneumoniae. Put plainly: Antibacterial activity against erythromycin-susceptible Streptococcus pneumoniae ATCC 49619 by broth microdilution method.
The subject of assay [6] is Streptococcus pneumoniae. Put plainly: Ratio of erythromycin MIC to compound MIC for erythromycin-resistant Streptococcus pneumoniae A22072 expressing mef gene.
The test system of assay [7] is Streptococcus pneumoniae. Put plainly: Ratio of clarithromycin MIC to compound MIC for erythromycin-resistant Streptococcus pneumoniae A22072 expressing mef gene.

`CC[C@H]1OC(=O)[C@H](C)[C@@H](O[C@H]2C[C@@](C)(OC)[C@@H](OC(=O)NNC(=O)c3ccc4[nH]c(-c5ccccc5)nc4c3)[C@H](C)O2)[C@H](C)[C@@H](O[C@@H]2O[C@H](C)C[C@H](N(C)C)[C@H]2O)[C@](C)(OC)C[C@@H](C)C(=O)[C@H](C)[C@@H](O)[C@]1(C)O`: the MIC in assay [1] worked out at 16 µg/mL (≈ 15.6 µM); in assay [2], 8 µg/mL (≈ 7.8 µM); in assay [3] it was 0.25 µg/mL (≈ 0.244 µM); in assay [4] it was 0.03 µg/mL (≈ 0.0292 µM); in assay [5] it was 0.03 µg/mL (≈ 0.0292 µM). The Ratio in assay [6] is 267; in assay [7], 133.
Regarding `CC[C@H]1OC(=O)[C@H](C)[C@@H](O[C@H]2C[C@@](C)(OC)[C@@H](OC(=O)NNC(=O)c3ccc4[nH]c(-c5cccc(OC)c5)nc4c3)[C@H](C)O2)[C@H](C)[C@@H](O[C@@H]2O[C@H](C)C[C@H](N(C)C)[C@H]2O)[C@](C)(OC)C[C@@H](C)C(=O)[C@H](C)[C@@H](O)[C@]1(C)O`, the MIC is 32 µg/mL (≈ 30.3 µM) in assay [1]; 16 µg/mL (≈ 15.1 µM) in assay [2]; 0.12 µg/mL (≈ 0.114 µM) in assay [3]; 0.03 µg/mL (≈ 0.0284 µM) in assay [4]; 0.03 µg/mL (≈ 0.0284 µM) in assay [5]. In addition, the Ratio in assay [6] was 267; in assay [7], 133.
As for `CC[C@H]1OC(=O)[C@H](C)[C@@H](O[C@H]2C[C@@](C)(OC)[C@@H](OC(=O)NNC(=O)c3ccc4[nH]c(-c5ccc(OC)cc5)nc4c3)[C@H](C)O2)[C@H](C)[C@@H](O[C@@H]2O[C@H](C)C[C@H](N(C)C)[C@H]2O)[C@](C)(OC)C[C@@H](C)C(=O)[C@H](C)[C@@H](O)[C@]1(C)O`, the MIC in assay [1] is 16 µg/mL (≈ 15.1 µM); in assay [2], 4 µg/mL (≈ 3.79 µM); in assay [3] it was 0.25 µg/mL (≈ 0.237 µM); in assay [4], 0.03 µg/mL (≈ 0.0284 µM); in assay [5] it was 0.12 µg/mL (≈ 0.114 µM). Also, the Ratio in assay [6] is 267; in assay [7], 133.
For `CC[C@H]1OC(=O)[C@H](C)[C@@H](O[C@H]2C[C@@](C)(OC)[C@@H](OC(=O)NNC(=O)c3ccc4[nH]c(-c5ccccc5Cl)nc4c3)[C@H](C)O2)[C@H](C)[C@@H](O[C@@H]2O[C@H](C)C[C@H](N(C)C)[C@H]2O)[C@](C)(OC)C[C@@H](C)C(=O)[C@H](C)[C@@H](O)[C@]1(C)O`, the MIC turned out to be 32 µg/mL (≈ 30.2 µM) in assay [1]; 32 µg/mL (≈ 30.2 µM) in assay [2]; 0.06 µg/mL (≈ 0.0566 µM) in assay [3]; 0.03 µg/mL (≈ 0.0283 µM) in assay [4]; 0.03 µg/mL (≈ 0.0283 µM) in assay [5]. For the same compound, the Ratio in assay [6] was 267; in assay [7], 133.
For the compound `CC[C@H]1OC(=O)[C@H](C)[C@@H](O[C@H]2C[C@@](C)(OC)[C@@H](OC(=O)NNC(=O)c3ccc4[nH]c(-c5ccc(Cl)cc5)nc4c3)[C@H](C)O2)[C@H](C)[C@@H](O[C@@H]2O[C@H](C)C[C@H](N(C)C)[C@H]2O)[C@](C)(OC)C[C@@H](C)C(=O)[C@H](C)[C@@H](O)[C@]1(C)O`, the MIC in assay [1] was found to be 16 µg/mL (≈ 15.1 µM); in assay [2], 8 µg/mL (≈ 7.54 µM); in assay [3], 0.5 µg/mL (≈ 0.471 µM); in assay [4], 0.03 µg/mL (≈ 0.0283 µM); in assay [5] it was 0.03 µg/mL (≈ 0.0283 µM). Besides, the Ratio in assay [6] worked out at 267; in assay [7] it was 133.
`CC[C@H]1OC(=O)[C@H](C)[C@@H](O[C@H]2C[C@@](C)(OC)[C@@H](OC(=O)NNC(=O)c3ccc4[nH]c(-c5cccc(Cl)c5O)nc4c3)[C@H](C)O2)[C@H](C)[C@@H](O[C@@H]2O[C@H](C)C[C@H](N(C)C)[C@H]2O)[C@](C)(OC)C[C@@H](C)C(=O)[C@H](C)[C@@H](O)[C@]1(C)O`: the MIC in assay [1] stood at 32 µg/mL (≈ 29.7 µM); in assay [2] it was 16 µg/mL (≈ 14.9 µM); in assay [3] it was 0.5 µg/mL (≈ 0.464 µM); in assay [4], 0.25 µg/mL (≈ 0.232 µM); in assay [5], 0.03 µg/mL (≈ 0.0279 µM).
In the same order, the values of `CC[C@H]1OC(=O)[C@H](C)[C@@H](O[C@H]2C[C@@](C)(OC)[C@@H](O)[C@H](C)O2)[C@H](C)[C@@H](O[C@@H]2O[C@H](C)C[C@H](N(C)C)[C@H]2O)[C@](C)(O)C[C@@H](C)CN(C)[C@H](C)[C@@H](O)[C@]1(C)O` [AZITHROMYCIN] are 256 µg/mL (≈ 342 µM), 128 µg/mL (≈ 171 µM), 0.12 µg/mL (≈ 0.16 µM), 4 µg/mL (≈ 5.34 µM) and 0.12 µg/mL (≈ 0.16 µM).
In the same order, the values of `CC[C@H]1OC(=O)[C@H](C)[C@@H](O[C@H]2C[C@@](C)(OC)[C@@H](O)[C@H](C)O2)[C@H](C)[C@@H](O[C@@H]2O[C@H](C)C[C@H](N(C)C)[C@H]2O)[C@](C)(OC)C[C@@H](C)C(=O)[C@H](C)[C@@H](O)[C@]1(C)O` [CLARITHROMYCIN] are 128 µg/mL (≈ 171 µM), 128 µg/mL (≈ 171 µM), 0.12 µg/mL (≈ 0.16 µM), 4 µg/mL (≈ 5.35 µM) and 0.12 µg/mL (≈ 0.16 µM).
In the same order, the values of `CC[C@H]1OC(=O)[C@H](C)[C@@H](O[C@H]2C[C@@](C)(OC)[C@@H](O)[C@H](C)O2)[C@H](C)[C@@H](O[C@@H]2O[C@H](C)C[C@H](N(C)C)[C@H]2O)[C@](C)(O)C[C@@H](C)C(=O)[C@H](C)[C@@H](O)[C@]1(C)O` [ERYTHROMYCIN] are 256 µg/mL (≈ 349 µM), 128 µg/mL (≈ 174 µM), 0.12 µg/mL (≈ 0.164 µM), 8 µg/mL (≈ 10.9 µM) and 0.12 µg/mL (≈ 0.164 µM).

As a reminder, the MIC is the lowest concentration that inhibits growth of the organism. Read a low MIC as greater potency.

These data come from ChEMBL document CHEMBL1795320, “Synthesis and antibacterial activity of novel 4″-O-benzimidazolyl clarithromycin derivatives” (2011).
